Among the targets are Cytochrome P450 3A4 (Homo sapiens, UniProt P08684); Cytochrome P450 2C9 (Homo sapiens, UniProt P11712); Cytochrome P450 2D6 (Homo sapiens, UniProt P10635).
The next series concerns the target T1, Cytochrome P450 1A2 (Homo sapiens, UniProt P05177).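 Note: PubChem cytochrome P450 panel assay, CYP1A2 panel member.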
T1 sequence (P05177 whole entry): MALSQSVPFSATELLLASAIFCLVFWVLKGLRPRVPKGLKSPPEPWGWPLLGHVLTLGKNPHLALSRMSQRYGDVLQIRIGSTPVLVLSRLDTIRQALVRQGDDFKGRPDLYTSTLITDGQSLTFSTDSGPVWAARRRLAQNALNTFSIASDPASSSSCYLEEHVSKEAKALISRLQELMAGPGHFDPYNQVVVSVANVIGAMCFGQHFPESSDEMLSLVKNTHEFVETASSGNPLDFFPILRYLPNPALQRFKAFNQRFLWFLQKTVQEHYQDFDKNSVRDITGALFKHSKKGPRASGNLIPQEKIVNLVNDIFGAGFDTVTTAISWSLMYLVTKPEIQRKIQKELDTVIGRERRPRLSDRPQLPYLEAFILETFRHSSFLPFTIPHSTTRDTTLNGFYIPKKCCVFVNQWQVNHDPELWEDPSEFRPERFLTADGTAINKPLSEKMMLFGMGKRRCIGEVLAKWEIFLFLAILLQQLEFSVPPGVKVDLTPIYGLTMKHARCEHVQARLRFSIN

The target of a further series is Cytochrome P450 2C19 (Homo sapiens, UniProt P33261). Nature of the series: Cytochrome panel assay with activity outcomes. Panel member name: p450-cyp2c19 Compounds with AC50 equal or less than 10 uM are considered active. It is filed as functional.
Sequence of Cytochrome P450 2C19 (P33261 whole entry): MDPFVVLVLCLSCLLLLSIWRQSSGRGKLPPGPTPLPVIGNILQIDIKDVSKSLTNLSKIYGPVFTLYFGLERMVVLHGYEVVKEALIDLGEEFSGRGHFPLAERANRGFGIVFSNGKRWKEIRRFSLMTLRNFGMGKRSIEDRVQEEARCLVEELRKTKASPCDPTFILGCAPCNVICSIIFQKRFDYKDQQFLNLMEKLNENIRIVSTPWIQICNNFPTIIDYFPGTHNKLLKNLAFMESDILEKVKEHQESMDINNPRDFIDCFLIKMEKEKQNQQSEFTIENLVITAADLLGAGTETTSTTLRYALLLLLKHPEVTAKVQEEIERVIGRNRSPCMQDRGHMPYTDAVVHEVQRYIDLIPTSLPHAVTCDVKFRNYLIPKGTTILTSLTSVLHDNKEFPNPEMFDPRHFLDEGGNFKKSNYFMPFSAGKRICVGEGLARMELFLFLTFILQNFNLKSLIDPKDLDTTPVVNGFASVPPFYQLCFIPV
Series [1] is described as follows: inhibitors of firefly luciferase expression or activity, dose response, H4 neuroglioma cells, luminescence (AID 1990). It is filed as functional, cell-based.
A short description of series [2]: Luminescence Cell-Based Dose Response HTS to Identify Inhibitors of 5'UTR Stem-Loop Driven Prion Protein mRNA Translation in H4 Neuroglioblastoma Cells. [Related pubchem assays: 1827 (Project Summary), 1813 (Primary HTS)]. It is filed as functional.
Series [3] can be described thus: inhibitors of SNCA 5'UTR-driven reporter translation, confirmation, H4 neuroglioma cells, luminescence (AID 1988). It counts as functional, cell-based.
Series [4] addresses T2, Heat shock factor protein 1 (Mus musculus, UniProt P38532).
T2 sequence (P38532 whole entry): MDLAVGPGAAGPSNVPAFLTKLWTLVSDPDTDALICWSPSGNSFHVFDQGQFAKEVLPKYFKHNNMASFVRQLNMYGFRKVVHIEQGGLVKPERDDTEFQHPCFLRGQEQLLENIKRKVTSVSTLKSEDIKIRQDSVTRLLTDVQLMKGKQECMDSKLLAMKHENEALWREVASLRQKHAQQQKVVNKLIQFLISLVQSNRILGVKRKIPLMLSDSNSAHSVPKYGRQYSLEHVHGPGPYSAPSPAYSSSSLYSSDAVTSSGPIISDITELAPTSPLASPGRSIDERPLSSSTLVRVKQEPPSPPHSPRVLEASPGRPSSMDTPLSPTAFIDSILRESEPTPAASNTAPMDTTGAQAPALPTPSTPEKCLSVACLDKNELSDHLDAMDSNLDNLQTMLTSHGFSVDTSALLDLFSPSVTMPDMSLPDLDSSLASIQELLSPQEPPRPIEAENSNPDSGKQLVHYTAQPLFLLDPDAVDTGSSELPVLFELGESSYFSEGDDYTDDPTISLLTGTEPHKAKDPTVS
Briefly: inhibition of MG132-induced HSE-luciferase signal, confirmation, cell-based, NIH3T3, luminescence, dose retest (AID 2382).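 Note: NIH3T3 fibroblasts with HSF1-driven luciferase reporter stressed by proteasome inhibitor MG132; luminescence from HSF1-driven luciferase expression after 8 hours of MG132 stress.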 It is filed as functional.

Calls of active or inactive are those of the source. Some results are limits rather than exact numbers.

Sequence of Cytochrome P450 3A4 (P08684 whole entry): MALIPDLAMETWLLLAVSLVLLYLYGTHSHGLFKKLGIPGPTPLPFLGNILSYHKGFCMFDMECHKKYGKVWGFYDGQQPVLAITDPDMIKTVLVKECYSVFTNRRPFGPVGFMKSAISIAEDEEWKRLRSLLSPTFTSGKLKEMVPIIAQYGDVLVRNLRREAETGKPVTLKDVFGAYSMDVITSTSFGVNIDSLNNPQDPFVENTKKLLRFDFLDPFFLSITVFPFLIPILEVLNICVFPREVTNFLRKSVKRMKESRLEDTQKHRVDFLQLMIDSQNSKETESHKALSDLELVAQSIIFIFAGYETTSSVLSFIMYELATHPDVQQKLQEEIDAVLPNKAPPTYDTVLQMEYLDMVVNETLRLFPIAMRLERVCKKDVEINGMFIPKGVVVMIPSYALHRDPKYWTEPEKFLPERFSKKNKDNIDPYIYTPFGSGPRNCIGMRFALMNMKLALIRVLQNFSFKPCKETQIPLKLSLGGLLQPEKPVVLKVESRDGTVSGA
Sequence of Cytochrome P450 2C9 (P11712 whole entry): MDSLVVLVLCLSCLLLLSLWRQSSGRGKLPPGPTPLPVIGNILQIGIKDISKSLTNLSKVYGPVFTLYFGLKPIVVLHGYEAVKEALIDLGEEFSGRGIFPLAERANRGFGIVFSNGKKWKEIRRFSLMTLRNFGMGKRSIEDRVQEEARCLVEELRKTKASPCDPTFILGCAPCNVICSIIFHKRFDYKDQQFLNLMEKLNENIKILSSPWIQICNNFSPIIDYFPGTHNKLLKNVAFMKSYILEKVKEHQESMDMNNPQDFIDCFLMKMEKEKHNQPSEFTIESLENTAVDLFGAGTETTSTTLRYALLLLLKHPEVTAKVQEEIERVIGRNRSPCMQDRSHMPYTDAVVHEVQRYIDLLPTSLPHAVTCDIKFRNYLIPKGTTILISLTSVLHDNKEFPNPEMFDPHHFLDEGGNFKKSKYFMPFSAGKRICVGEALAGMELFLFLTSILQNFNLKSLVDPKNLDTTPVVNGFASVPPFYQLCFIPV
Sequence of Cytochrome P450 2D6 (P10635 whole entry): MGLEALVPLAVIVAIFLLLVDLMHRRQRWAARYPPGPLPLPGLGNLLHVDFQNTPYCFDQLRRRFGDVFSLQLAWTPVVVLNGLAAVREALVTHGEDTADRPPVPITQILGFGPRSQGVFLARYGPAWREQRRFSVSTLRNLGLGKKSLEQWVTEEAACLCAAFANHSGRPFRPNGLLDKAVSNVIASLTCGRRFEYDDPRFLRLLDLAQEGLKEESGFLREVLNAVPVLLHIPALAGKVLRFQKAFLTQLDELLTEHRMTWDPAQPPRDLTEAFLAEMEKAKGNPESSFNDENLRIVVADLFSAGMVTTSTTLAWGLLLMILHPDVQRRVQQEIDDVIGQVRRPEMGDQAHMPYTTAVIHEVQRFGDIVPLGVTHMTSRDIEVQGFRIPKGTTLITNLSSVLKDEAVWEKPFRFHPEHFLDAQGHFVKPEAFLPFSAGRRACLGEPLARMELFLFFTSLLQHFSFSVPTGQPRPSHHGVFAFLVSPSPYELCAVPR

The term AC50 denotes the midpoint of the concentration-response curve, whichever way the signal moves. Consider `COc1ccccc1CN1CCCC2(CCN(C(C)=O)CC2)C1`, for which the AC50 on Cytochrome P450 1A2 is 25.1 µM (inconclusive). Consider `Cc1c(N2C(=O)CS/C2=N\N=C\c2ccc(Cl)cc2)c(=O)n(-c2ccccc2)n1C`, for which the half-maximal activity concentration (AC50) at Cytochrome P450 2C19 (read-out: AC50) was 39.8 µM (inconclusive); on Cytochrome P450 3A4, 28.2 µM (inconclusive); at Cytochrome P450 2C9 it was 31.6 µM (inconclusive). Take `COCCn1c(=O)cnc2cnc(Oc3ccccc3)nc21`: the half-maximal activity concentration (AC50) on Cytochrome P450 3A4 was 25.1 µM (inconclusive).

In the case of `O=C(Nc1ccc(F)cc1Cl)c1ccc2c(=O)n3c(nc2c1)CCCCC3`, the AC50 was 3.98 µM (inconclusive) on Cytochrome P450 2C19 (read-out: AC50) and 4.47 µM (inconclusive) at Cytochrome P450 3A4.

Usually EC50 stands for the concentration needed to bring the measured effect to its halfway point. Consider `COc1cc(-c2c(C#N)c(N)nc3c2CCCC3)cc(OC)c1OC`, for which the figures for the 50% effective concentration (EC50) in series [1], in [2] and in series [3] were 27.4 µM (active), 17.1 µM (active) and 19.7 µM (active), respectively. `COc1cc(NC(=O)c2cccs2)c(C(=O)OCC(=O)c2cc(C)n(-c3ccc(F)cc3)c2C)cc1OC`: the EC50 in series [4] was 4.87 µM (active). As to `Cc1ccc(S(=O)(=O)c2cc(N3CCOCC3)nc(-c3ccccc3)n2)cc1`, at Cytochrome P450 2C9, the AC50 is 11.2 µM (inconclusive). For the compound `CC1=CC2=NC(=O)CC(C)(C(=O)N(CC(=O)NC(C)(C)C)Cc3cccs3)N2C=C1` (stereo unspecified), on Cytochrome P450 2C9, the AC50 is 25.1 µM (inconclusive). For the compound `COCCNC(=O)[C@H](C)[C@@H]1C[C@@]1(C)[C@@H](NC(=O)OCc1ccccc1)c1ccccc1`, on Cytochrome P450 2C9, the AC50 is 31.6 µM (inconclusive). Turning to `Cn1c(=O)c2c(-c3cccc(F)c3)c3c(nc2n(C)c1=O)-c1ccccc1C3O` (stereo unspecified), the half-maximal activity concentration (AC50) was 79.4 µM (inconclusive) at Cytochrome P450 2D6, 22.4 µM (inconclusive) on Cytochrome P450 3A4 and 2.82 µM (inconclusive) at Cytochrome P450 2C9. On to `CC1CCN(C(=O)CSc2nc(O)c3cnn(-c4ccc(Cl)cc4)c3n2)CC1`, for which the EC50 in series [4] is on record as > 195 µM (not active). Take `CN(C)c1ncc2nc(-c3ccccc3)c(=O)n(-c3ccccc3)c2n1`: the half-maximal activity concentration (AC50) on Cytochrome P450 1A2 is 0.398 µM (inconclusive).

Regarding `C(=N\n1cncn1)/c1ccc(N2CCOCC2)cc1`, the EC50 in series [4] is listed as > 195 µM (not active).

On to `CCCC(=O)Nc1nnc(Cc2ccccc2)s1`, for which the AC50 on Cytochrome P450 3A4 is 15.8 µM (inconclusive); at Cytochrome P450 2C9 it was 10 µM (inconclusive). With `COCC(=O)N1CCC2(CCCN(C(=O)Nc3ccc(OC)cc3)C2)CC1`, the AC50 result was “inconclusive” on Cytochrome P450 2C19 and 39.8 µM (inconclusive) on Cytochrome P450 3A4.

`Cc1cc(=O)oc(C)c1C(=O)Nc1ccc(Cl)cn1`: the values for the AC50 at Cytochrome P450 2C19 (read-out: AC50) and at Cytochrome P450 2C9 were 2.24 µM (inconclusive) and 20 µM (inconclusive), respectively. As to `Cc1cnn(-c2ccc3nnc(-c4ccc(Cl)cc4)n3n2)c1`, the concentration at half-maximal activity (AC50) was 1.41 µM (inconclusive) on Cytochrome P450 2C19 (read-out: AC50), 1.12 µM (inconclusive) on Cytochrome P450 3A4 and 6.31 µM (inconclusive) at Cytochrome P450 2C9. With `O=C(NCc1ccc(F)cc1)C(c1ccncc1)N(C(=O)c1csnn1)C1CC1` (stereo unspecified), the AC50 on Cytochrome P450 2D6 was 11.2 µM (inconclusive); at Cytochrome P450 2C9, 8.91 µM (inconclusive). With `Cc1cc(SC(C)C(=O)NCC(=O)Nc2ccc(F)c(F)c2F)nc2ccccc12` (stereo unspecified), the EC50 was > 120 µM (not active) in series [1], 92 µM (active) in [2] and 18 µM (active) in series [3]. On to `O=C(Nc1ccccc1)N1CCCC2(CCN(C(=O)c3cc(C(F)(F)F)cc(C(F)(F)F)c3)CC2)C1`, for which, on Cytochrome P450 1A2, the AC50 was 31.6 µM (inconclusive). For `CCCCNC(=O)CN1C(=O)NC2(CCCc3ccccc32)C1=O` (stereo unspecified), the results for the AC50 at Cytochrome P450 2C19 (read-out: AC50) and at Cytochrome P450 1A2 were 31.6 µM (inconclusive) and 25.1 µM (inconclusive), respectively. On to `CC(C)=C1C2CCC1C1C(=O)N(c3ccc(C)c(C)c3)C(=O)C21` (stereo unspecified), for which the concentration for a half-maximal effect (EC50) in series [4] is > 195 µM (not active).

For `COc1ccc2cc3cc(C(=O)NCc4ccccn4)oc3nc2c1`, the AC50 at Cytochrome P450 2D6 and on Cytochrome P450 3A4 was 39.8 µM (inconclusive) in each case. For `COc1ccc(O[C@H]2C=C[C@@H](c3ccccc3)O[C@@H]2CO/N=C(\C)CCN2CCCCc3nc(C)c(C)cc32)cc1`, the half-maximal activity concentration (AC50) on Cytochrome P450 2C9 is 6.31 µM (inconclusive). On to `CN(C)S(=O)(=O)c1ccc(Nc2ccc(O)c3c2C(=O)c2c([N+](=O)[O-])ccc(O)c2C3=O)cc1`, for which the figures for the concentration at half-maximal activity (AC50) on Cytochrome P450 2D6, at Cytochrome P450 3A4 and at Cytochrome P450 2C9 were 0.794 µM (inconclusive), 3.98 µM (inconclusive) and 3.16 µM (inconclusive), respectively. On to `CSc1nc(NCc2ccco2)c2sc3nc(C(C)C)c4c(c3c2n1)CC(C)(C)OC4`, for which the EC50 is 27.5 µM (active) in [1], > 120 µM (not active) in series [2] and > 120 µM (not active) in [3]. For `O=c1c2ccc([N+](=O)[O-])c3cccc(c32)c2nc3ccccc3n12`, the concentration for a half-maximal effect (EC50) in series [1], in series [2] and in series [3] was < 0.1 µM (active) in each case.

`O=c1c(-c2ccccc2)c(O)c2cccc3c2n1CCC3`: the AC50 at Cytochrome P450 1A2 was 11.2 µM (inconclusive). With `Cc1ccc(N2CC(C(=O)Nc3nnc(SCCN4CCOCC4)s3)CC2=O)cc1` (stereo unspecified), in series [4], the EC50 is given as > 195 µM (not active). On to `O=[N+]([O-])c1cc([N+](=O)[O-])c(Oc2cccc(Cl)c2Cl)cc1NN1CCCCC1`, for which the EC50 is 11.8 µM (active) in series [1], > 120 µM (not active) in [2] and 58.3 µM (active) in series [3]. Regarding `COC(=O)C1=C(C)NC(C)=C(C(=O)OC(C)C)C1c1cccc2nonc12` (stereo unspecified) [ISRADIPINE], on Cytochrome P450 1A2, the concentration at half-maximal activity (AC50) is 31.6 µM (inconclusive). `O=C(Nc1ccc(Oc2ncnc3cc(Cl)ccc23)nc1)c1cccs1`: the EC50 in series [1], in [2] and in [3] was > 120 µM (not active) each time. For `C/C(=N\Nc1nncc2ccccc12)c1ccc(Cl)c([N+](=O)[O-])c1`, the half-maximal effective concentration (EC50) in [4] is > 195 µM (not active). As for `O=C(O)c1ccc(Oc2nc3ccccc3s2)cc1`, the half-maximal activity concentration (AC50) on Cytochrome P450 1A2 was 3.16 µM (inconclusive). As to `O=C(/C(=C(\[O-])c1ccccc1)[n+]1ccc2ccccc2c1)c1ccc([N+](=O)[O-])cc1`, the EC50 in series [4] was > 195 µM (not active). Regarding `Cc1nnc(-c2cccc(Br)c2)c2cn(-c3ccccc3Cl)nc12`, the AC50 is 28.2 µM (inconclusive) at Cytochrome P450 2D6 and 39.8 µM (inconclusive) on Cytochrome P450 3A4.

In the case of `CCCC1S/C(=N/N=C/c2ccc(OC)cc2)N(Cc2ccc(OC)cc2)C1=O` (stereo unspecified), the concentration at half-maximal activity (AC50) on Cytochrome P450 3A4 was 1 µM (inconclusive). For the compound `COc1ccc(NC(=O)CN(C)S(=O)(=O)c2ccc3c(c2)CCC(=O)N3)c(OC)c1`, the EC50 in series [4] is > 195 µM (not active). In the case of `COc1ccc(CNC(=O)C(=O)c2cn(CC(=O)N3CCOCC3)c3ccccc23)cc1`, the EC50 in series [4] is > 195 µM (not active). Turning to `COc1ccc(OC)c(Nc2nc(-c3sc(NC(=O)C(C)(C)C)nc3C)cs2)c1`, the concentration giving a half-maximal response (EC50) in series [4] is > 195 µM (not active). With `CC(C)OCCCn1c(=S)[nH]c2ncccc2c1=O`, the AC50 on Cytochrome P450 2C9 was 1.78 µM (inconclusive). As for `N#CC(C#N)=NNc1ccc2cn[nH]c2c1`, the half-maximal activity concentration (AC50) is 3.16 µM (inconclusive) on Cytochrome P450 2C19 (read-out: AC50) and 1.58 µM (inconclusive) at Cytochrome P450 3A4. In the case of `COc1ccc(C)cc1NC(=O)CN1CCN(S(=O)(=O)c2ccc(F)cc2)CC1`, the AC50 on Cytochrome P450 1A2 is 0.0398 µM (inconclusive). `COC(=O)c1nn(C23CC4CC(CC(C4)C2)C3)c2c1C(=O)N(c1ccc(F)cc1)C2=O`: the results for the AC50 on Cytochrome P450 2C19 (read-out: AC50) and at Cytochrome P450 2C9 were 39.8 µM (inconclusive) and 12.6 µM (inconclusive), respectively. Turning to `Cc1cnc(CNc2ncncc2-c2ccccc2C(F)(F)F)cn1`, the values for the half-maximal activity concentration (AC50) on Cytochrome P450 2C19 (read-out: AC50) and at Cytochrome P450 3A4 were 39.8 µM (inconclusive) and 0.2 µM (inconclusive), respectively.

`CC(C)(C)N1[C@@H](CC(=O)O)c2cc(C(F)(F)F)ccc2S1(=O)=O`: the concentration giving a half-maximal response (EC50) in series [4] is reported as > 195 µM (not active). As to `O=C(Nc1ccc(-n2nncc2-c2ccco2)cc1)c1ccc(F)cc1`, on Cytochrome P450 2C9, the half-maximal activity concentration (AC50) was 11.2 µM (inconclusive).

Consider `COC(=O)/C=C/c1ccccc1S(=O)(=O)N(Cc1ccccc1)Cc1ccco1`, for which the 50% effective concentration (EC50) in series [1] was 8.38 µM (inconclusive); in [2], 9.84 µM (active); in series [3] it was 5.96 µM (active).

Source of the values: ChEMBL document CHEMBL1201862, “PubChem BioAssay data set” (2004).
